According to ChEMBL document CHEMBL5647688, “Mitogen-activated protein kinase (MEK/ERK) inhibition sensitizes cancer cells to centromere-associated protein E inhibition” (Int J Cancer, 2013):

Assays:
Format in all cases: functional
[1] = system: CAPAN-1; assay: Synergistic cytotoxicity against human CAPAN-1 cells expressing KRAS mutant assessed as combination index at ED75 measured after 72 hrs in presence of MEK inhibitor GSK1120212 by Cell-titer Glo reagent assay
[2] = system: NB-1691; assay: Synergistic cytotoxicity against human NB-1691 cells assessed as combination index at ED 50 measured after 72 hrs in presence of temozolomide by Cell-titer Glo reagent assay
[3] = system: NB-1691; assay: Synergistic cytotoxicity against human NB-1691 cells assessed as combination index at ED 50 measured after 72 hrs in presence of temozolomide and SN-38 by Cell-titer Glo reagent assay
[4] = system: NCI-H2170; assay: Synergistic cytotoxicity against human NCI-H2170 cells assessed as combination index at ED75 measured after 72 hrs in presence of MEK inhibitor GSK1120212 by Cell-titer Glo reagent assay
[5] = system: NCI-H1792; assay: Synergistic cytotoxicity against human NCI-H1792 cells expressing KRAS mutant assessed as combination index at ED 50 measured after 72 hrs in presence of MEK inhibitor GSK1120212 by Cell-titer Glo reagent assay
[6] = system: SK-N-FI; assay: Synergistic cytotoxicity against human SK-N-FI cells assessed as combination index at ED 75 measured after 72 hrs in presence of SN-38 by Cell-titer Glo reagent assay
[7] = Synergistic cytotoxicity against human NB-1771 cells assessed as combination index at ED 75 measured after 72 hrs in presence of concurrent treatment of […] inhibitor CI-1040 by Cell-titer Glo reagent assay
[8] = system: SK-N-FI; assay: Synergistic cytotoxicity against human SK-N-FI cells assessed as combination index at ED 75 measured after 72 hrs in presence of sequential treatment of […] inhibitor CI-1040 by Cell-titer Glo reagent assay
[9] = system: SW1990; assay: Synergistic cytotoxicity against human SW1990 cells expressing KRAS mutant assessed as combination index at ED 50 measured after 72 hrs in presence of MEK inhibitor GSK1120212 by Cell-titer Glo reagent assay
[10] = system: NCI-H2030; assay: Synergistic cytotoxicity against human NCI-H2030 cells expressing KRAS mutant assessed as combination index at ED 50 measured after 72 hrs in presence of MEK inhibitor GSK1120212 by Cell-titer Glo reagent assay
[11] = system: NCI-H2228; assay: Synergistic cytotoxicity against human NCI-H2228 cells assessed as combination index at ED 50 measured after 72 hrs in presence of MEK inhibitor GSK1120212 by Cell-titer Glo reagent assay
[12] = system: SK-N-FI; assay: Synergistic cytotoxicity against human SK-N-FI cells assessed as combination index at ED 50 measured after 72 hrs in presence of temozolomide by Cell-titer Glo reagent assay
[13] = system: Calu-6; assay: Synergistic cytotoxicity against human Calu-6 cells expressing KRAS mutant assessed as combination index at ED 50 measured after 72 hrs in presence of MEK inhibitor GSK1120212 by Cell-titer Glo reagent assay
[14] = system: NCI-H2122; assay: Synergistic cytotoxicity against human NCI-H2122 cells expressing KRAS mutant assessed as combination index at ED75 measured after 72 hrs in presence of MEK inhibitor GSK1120212 by Cell-titer Glo reagent assay
[15] = system: RKO; assay: Synergistic cytotoxicity against human RKO cells expressing BRAF mutant assessed as combination index at ED75 measured after 72 hrs in presence of MEK inhibitor GSK1120212 by Cell-titer Glo reagent assay
[16] = system: YAPC; assay: Synergistic cytotoxicity against human […] cells expressing KRAS mutant assessed as combination index at ED75 measured after 72 hrs in presence of MEK inhibitor GSK1120212 by Cell-titer Glo reagent assay
[17] = system: NCI-H520; assay: Synergistic cytotoxicity against human NCI-H520 cells assessed as combination index at ED75 measured after 72 hrs in presence of MEK inhibitor GSK1120212 by Cell-titer Glo reagent assay
[18] = system: Capan-2; assay: Synergistic cytotoxicity against human Capan-2 cells expressing KRAS mutant assessed as combination index at ED 50 measured after 72 hrs in presence of MEK inhibitor GSK1120212 by Cell-titer Glo reagent assay
[19] = system: SK-N-FI; assay: Synergistic cytotoxicity against human SK-N-FI cells assessed as combination index at ED 50 measured after 72 hrs in presence of SN-38 by Cell-titer Glo reagent assay
[20] = system: NCI-H23; assay: Synergistic cytotoxicity against human NCI-H23 cells assessed as combination index at ED75 measured after 72 hrs in presence of MEK inhibitor GSK1120212 by Cell-titer Glo reagent assay
[21] = system: NCI-H1563; assay: Synergistic cytotoxicity against human NCI-H1563 cells assessed as combination index at ED75 measured after 72 hrs in presence of MEK inhibitor GSK1120212 by Cell-titer Glo reagent assay
[22] = system: MIA PaCa-2; assay: Synergistic cytotoxicity against human MIA PaCa-2 cells expressing KRAS mutant assessed as combination index at ED75 measured after 72 hrs in presence of MEK inhibitor GSK1120212 by Cell-titer Glo reagent assay
[23] = system: SW-620; assay: Synergistic cytotoxicity against human SW620 cells expressing KRAS mutant assessed as combination index at ED75 measured after 72 hrs in presence of MEK inhibitor GSK1120212 by Cell-titer Glo reagent assay
[24] = system: NB-1691; assay: Synergistic cytotoxicity against human NB-1691 cells assessed as combination index at ED 50 measured after 72 hrs in presence of SN-38 by Cell-titer Glo reagent assay
[25] = system: NCI-H520; assay: Synergistic cytotoxicity against human NCI-H520 cells assessed as combination index at ED 50 measured after 72 hrs in presence of MEK inhibitor GSK1120212 by Cell-titer Glo reagent assay
[26] = system: SK-N-FI; assay: Synergistic cytotoxicity against human SK-N-FI cells assessed as combination index at ED 50 measured after 72 hrs in presence of SN-38 and temozolomide by Cell-titer Glo reagent assay
[27] = system: SK-N-FI; assay: Synergistic cytotoxicity against human SK-N-FI cells assessed as combination index at ED 50 measured after 72 hrs in presence of concurrent treatment of […] inhibitor CI-1040 by Cell-titer Glo reagent assay
[28] = system: SW900; assay: Synergistic cytotoxicity against human SW900 cells expressing KRAS mutant assessed as combination index at ED75 measured after 72 hrs in presence of MEK inhibitor GSK1120212 by Cell-titer Glo reagent assay
[29] = system: NCI-H1299; assay: Synergistic cytotoxicity against human NCI-H1299 cells expressing NRAS mutant assessed as combination index at ED 50 measured after 72 hrs in presence of MEK inhibitor GSK1120212 by Cell-titer Glo reagent assay
[30] = system: NCI-H358; assay: Synergistic cytotoxicity against human NCI-H358 cells expressing KRAS mutant assessed as combination index at ED 50 measured after 72 hrs in presence of MEK inhibitor GSK1120212 by Cell-titer Glo reagent assay

Structure (SMILES): CC(C)Oc1ccc(C(=O)N[C@H](CNC(=O)CN(C)C)Cc2ccc(-c3cn4cccc([C@H](C)O)c4n3)cc2)cc1Cl [GSK-923295A]
- CI [1]: 0.091
- CI [2]: 0.405
- CI [3]: 0.049
- CI [4]: 0.624
- CI [5]: 0.484
- CI [6]: 1.754
- CI [7]: 0.118
- CI [8]: 0.757
- CI [9]: 0.176
- CI [10]: 0.308
- CI [11]: 0.317
- CI [12]: 0.837
- CI [13]: 0.556
- CI [14]: 0.796
- CI [15]: 0.206
- CI [16]: 1.31
- CI [17]: 0.715
- CI [18]: 0.298
- CI [19]: 1.845
- CI [20]: 0.234
- CI [21]: 0.243
- CI [22]: 0.311
- CI [23]: 0.289
- CI [24]: 0.394
- CI [25]: 0.842
- CI [26]: 0.67
- CI [27]: 0.643
- CI [28]: 0.653
- CI [29]: 0.382
- CI [30]: 0.416
